Assay results published in US7341867B2, “Human preprotachykinin gene promoter” (University of Medicine & Dentistry of New Jersey, priority 1999, dated 2008).

Assays:
Type in all cases: cell-based, human
β-PPT-I mRNA = assay: Quantitative RT-PCR in stimulated bone marrow stroma
Description: (§1) In a second embodiment of the present invention, bone marrow stroma was stimulated in serum-free α-MEM supplemented with Insulin-transferrin-selenium-A (Life Technologies). Quantitative RT-PCR with total RNA, extracted from bone marrow stroma and construction of standard DNA was performed as described in Singh, D., supra. The end sequences of the standard DNA contained gene-specific sequences that are complementary for the reaction primers. The primers in the standard DNA flank neutral DNA. Total RNA (2 μg) was reverse transcribed and 200 ng cDNA used in PCR with specific oligonucleotide primers for PPT-I, NK-1 or NK-2. Standard DNA, log10 fold dilutions, ranged between 10^−2 to 10^−6 attomole/L. Each unknown sample was assayed with a particular concentration of standard DNA in the same reaction tube. PCR products (10 μl) were separated by electrophoresis on 1.5% agarose containing ethidium bromide and the densities of the DNA bands quantitated with a Fluorimager (Molecular Dynamics, Sunnyvale, Calif.) and then analyzed with ImageQuant software. A standard curve was established for each unknown sample: band densities of unknown/standard DNA vs. Log10 standard DNA concentration was used to determine the concentration of RNA molecules in the unknown samples. The concentration of the unknown sample was selected at the concentration in which the ratio of the unknown and standard were equivalent.
(§2) Transfected bone marrow stroma was stimulated with optimal concentrations of IL-1α (2.5 ng/ml), SCF (8 ng/ml) or 1 nM substance P, SP (Sigma, St Louis, Mo.) and/or 10 nM NK-1-specific antagonist (CP-99,994) in α-MEM with 2% FCS. In other embodiments, bone marrow stroma was stimulated with 5 μg/ml forskolin, FK (Sigma) for 2 and 5 h. SCF was purchased from R&D Systems (Minneapolis, Minn.) and IL-1α was obtained from Hoffman LaRoche, Nutley, N.J. Pfizer, Inc. (Groton, Conn.) provided CP-99,994. Substance P and CP-99,994 were dissolved and stored as described in Ramewshwar et al (1996), supra. Optimal parameters were determined with dose-response and time-course studies.
Confluent bone marrow stroma was stimulated with 25 ng/ml rhIL-1α or 10 ng/ml SCF for 24 h. Poly A RNA was isolated from total RNA by selection (2×) on oligo-dT cellulose (Life Technologies). The cellulose column was washed once with 10 mM Tris, pH 7.0; 0.5 M NaCl; […] and once with 10 mM Tris, pH 7.0; 0.2 M NaCl; […]. Poly A RNA was eluted with 10 mM Tris (pH 7.0) and […]. RNA was precipitated by standard techniques and then resuspended in DEPC-treated water. The purity was verified by the absence of rRNA.

NK-1 mRNA = assay: as above
Description: as §1, §2

NK-2 mRNA = assay: as above; conditions: BM stroma; 8 ng/ml SCF or 2.5 ng/ml IL-1a; 16 h; serum-free α-MEM
Description: as §1, §2

[1] = tested on: PPT-I promoter (Upstream/N0); assay: Luciferase reporter gene assay, pGL3-Upstream/N0 in transfected bone marrow stroma
Description: as §2
pGL3-basic with inserts of different fragments from PPT-I-p1.2 was co-transfected with pβ-gal-Control (0.5 μg each) in 80% confluent bone marrow stroma using SuperFect (Qiagen, Valencia, Calif.). After 48 h cells were scraped in 30 μl 250 mM Tris (pH 8.0) and then lysed by freezing and thawing in a dry ice/ethanol bath. Cell-free lysates (24 μl) were obtained by centrifugation at 15,000 g for 5 min at 4° C. and then diluted with 5× cell culture lysis buffer (Promega). Luciferase and β-gal activities were quantitated with 10 μl of lysates using Luciferase assay system (Promega) and Luminescent β-galactosidase detection kit II (Clontech) respectively. In the experimental model, the ratios of Luciferase/β-gal in cells transfected with vector alone ranged from 0.18 to 0.19 and was normalized to 1. Because cytokines induce the promoter upstream of β-gal, in cytokine-stimulated cells, luciferase activity was presented/mg of total protein the levels normalized with stroma transfected with vector alone. Total protein was determined using standard techniquees well known in the art.
Mutations were performed with a mutagenesis kit (Stratagene, La Jolla, Calif.). The desired mutant sequences (Table 1) were synthesized within 40 nt in the forward and reverse directions and then used in PCR with pGL3 containing wild type Upstream/N0. After PCR amplification, mutation was verified by identification of Apa L1 within CRE-like mutant and the loss of Xho 1 in CRE mutant.

SP-IR = assay: ELISA of immunoreactive-SP (SP-IR) in stroma cell extracts
Description: Competitive ELISA quantitated SP-IR in supernatants from breast cancer cell cultures that were 80% confluent. Cell-free supernatants were stored in siliconized tubes at −70° C. until ready to be assayed. Streptavidin, […] in distilled water, was added to Immulon 96-well plates (Dynatech Laboratories Inc., Chantilly, Va.). Streptavidin was allowed to dry at 37° C. After this, wells were blocked with 5% nonfat dry milk for 2 hr at room temperature and then washed with PBS containing 0.1% Tween-20 (PBST). Chiron Mimotopes (Emeryville, Calif.) synthesized biotinylated-SP, with spacer arm. Stock solution was diluted in 0.1% (v/v) acetic acid at 5 mg/ml, aliquoted in siliconized tubes and stored at −70° C. Working solution was diluted at 750 ng/ml with PBS containing 0.1% (w/v) BSA and 0.1% (w/v) sodium azide. Biotinylated-SP ([…]) was added to wells and plates incubated for 1 hr at room temperature. Plates were washed (×4) with PBST. Competition by the […] and soluble SP for anti-SP forms the basis for the next step. Equal volume (50 μl) of optimum rabbit anti-SP (1/15,000), and unknown or standard solution were added to wells. Plates were incubated at room temperature for 1 hr. Each unknown was assayed in triplicate as undiluted and three serial dilutions. Bound anti-SP was detected by incubating for 1 hr with optimum (150 ng/ml) AP-goat antirabbit IgG. Color was developed with Sigma 104 phosphatase substrate as described (Rameshwar, P. et al. (1996), Blood 88, 98-106). A standard curve was developed with O.D. (405 nm) versus 12 serial dilutions of standard SP that ranged from 100 to 0.08 ng/ml. […]
In the next set of experiments, we investigated the possibility for an indirect mechanism in the activation of PPT-I promoter. […] Since SCF induces endogenous PPT-I (Table 6), we used ELISA (Singh, D. et al, supra) to quantitate the level of its major translation product, immunoreactive-SP (SP-IR), in stroma cell extracts. […] To address this, we incubated the SCF-stimulated cells with 10 nM of an NK-1-specific antagonist (CP-99,994) and then quantitated luciferase activity. […]

[2] = BM stroma, 8 ng/ml SCF or 2.5 ng/ml IL-1a, 16 h, serum-free α-MEM
[3] = stroma stimulated with SCF, five experiments

## SCF: stem cell factor, cytokine purchased from R&D Systems
β-PPT-I mRNA; BM stroma, 1 nM SP, 8 ng/ml SCF and/or 10 nM CP-99,994, 16 h
  β-PPT-I (molecules/μg total RNA): 1324 ± 76 molecules/μg total RNA
β-PPT-I mRNA; [2]
  β-PPT-I mRNA: 1336 ± 134 Molecules/μg total RNA
β-PPT-I mRNA; poly A RNA from stroma stimulated with 25 ng/ml rhIL-1α or 10 ng/ml SCF for 24 h, n=6
  molecules of β-PPT-I/μg poly A: 134,340±545 molecules of β-PPT-I/μg poly A
NK-1 mRNA; [2]
  NK-1 mRNA: 5253 ± 170 Molecules/μg total RNA
NK-1 mRNA; optimal SCF for 36 h
  NK-1 induced: 5052±50 molecules/μg total RNA
NK-2 mRNA
  NK-2 mRNA: 273 ± 19 Molecules/μg total RNA
[1]; pGL3-Upstream/N0 wild type, optimal SCF or IL-1a, 10 h
  increase in luciferase activities compared to unstimulated cells: 4 fold
[1]; pGL3-Upstream/N0 with mutant CRE and CRE-like
  induction of luciferase in cells transfected with the double mutants: no significant induction
SP-IR; SCF-stimulated, after 36 h, n=5, ±SD
  SP-IR in stromal extracts: 115 ± 8 pg/mL
SP-IR; [3]
  SP-IR at 4 h post-transfection: 122 ± 14 pg/mL
  SP-IR at time 0 post-transfection: 110 ± 18 pg/mL
